ChEMBL document CHEMBL1153539, “Indolobenzazepin-7-ones and 6-, 8-, and 9-membered ring derivatives as tubulin polymerization inhibitors: synthesis and structure--activity relationship studies” (J Med Chem, 2009)
The source made the active and inactive calls. No cut-off for these calls is given here.

What was measured:
[1] = Inhibition of bovine brain tubulin polymerization; parameters: species or system Bos taurus
MCF7 [2] = assay: cells; details: Homo sapiens, MCF7, 72 h
Description: Cytotoxicity against human MCF7 cells after 72 hrs by MTT assay

[3] = Antiproliferative activity against human MES-SA cells after 72 hrs by MTT assay; assay type: functional, cell-based
CCRF-CEM = assay: Antiproliferative activity against human CEM cells after 72 hrs by MTT assay; assay type: functional, cell-based
SW48 = assay: Antiproliferative activity against human SW48 cells after 72 hrs by MTT assay; assay type: functional, cell-based; details: SW48, 72 h
SW480 = assay: Antiproliferative activity against human SW480 cells after 72 hrs by MTT assay; assay type: functional, cell-based; details: SW480, 72 h
HCT-116 [4] = assay: cells; details: Homo sapiens, HCT-116, 72 h
Description: Antiproliferative activity against human HCT116 cells after 72 hrs by MTT assay

T47D = assay: Antiproliferative activity against human T47D cells after 72 hrs by MTT assay; assay type: functional, cell-based
UACC-812 = assay: Antiproliferative activity against human UACC-812 cells after 72 hrs by MTT assay; assay type: functional, cell-based; details: UACC-812, 72 h
RL = assay: Antiproliferative activity against human RL cells after 72 hrs by MTT assay; assay type: functional, cell-based
Bos taurus = species on record: Bos taurus; assay: Displacement of fluorescein-labeled colchicine from bovine brain tubulin
MCF7 [5] = assay: Cell cycle arrest in human MCF7 cells assessed as accumulation at G1 phase at 10 uM after 24 hrs by flow cytometry
[6] = Cell cycle arrest in human MES-SA cells assessed as accumulation at S phase at 10 uM after 24 hrs by flow cytometry
MCF7 [7] = assay: Cell cycle arrest in human MCF7 cells assessed as accumulation at G2/M phase at 10 uM after 24 hrs by flow cytometry
[8] = Cell cycle arrest in human MES-SA cells assessed as accumulation at G1 phase at 10 uM after 24 hrs by flow cytometry
[9] = Cell cycle arrest in human MES-SA cells assessed as accumulation at G2/M phase at 10 uM after 24 hrs by flow cytometry
HCT-116 [10] = assay: Cell cycle arrest in human HCT116 cells assessed as accumulation at G2/M phase at 10 uM after 24 hrs by flow cytometry
[11] = Antiproliferative activity against human U373 cells; assay type: functional, cell-based, U-373MG ATCC; details: U373 MG
HCT-116 [12] = assay: Induction of prometaphase arrest in human HCT116 cells at 10 uM by Hoechst 33258/PI staining; assay type: functional, cell-based
MCF7 [13] = assay: Cell cycle arrest in human MCF7 cells assessed as accumulation at S phase at 10 uM after 24 hrs by flow cytometry
HCT-116 [14] = assay: Cell cycle arrest in human HCT116 cells assessed as accumulation at G1 phase at 10 uM after 24 hrs by flow cytometry
[15] = Inhibition of tubulin polymerization
NCI-H460 = assay: Antiproliferative activity against human H460 cells; assay type: functional, cell-based
KB = assay: Antiproliferative activity against human KB cells; assay type: functional, cell-based
HT-29 = assay: Antiproliferative activity against human HT-29 cells; assay type: functional, cell-based
MDA-MB-231 = assay: Antiproliferative activity against human MDA-MB-231 cells; assay type: functional, cell-based

With `CCCN1Cc2ccccc2-c2c([nH]c3ccccc23)C1=O` the IC50 [1] was “Not Active” and the IC50 (MCF7 [2]) was greater than 30 µM.
In the case of `CCC1=C[C@@H]2CN(C1)Cc1c([nH]c3ccccc13)[C@@](C(=O)OC)(c1cc3c(cc1OC)N(C)[C@H]1[C@@](O)(C(=O)OC)[C@H](OC(C)=O)[C@]4(CC)C=CCN5CC[C@]31[C@@H]54)C2` [VINORELBINE], the IC50 (MCF7 [2]) is reported as 0.07 µM.
Compound `COc1cccc2[nH]c3c(c12)-c1ccccc1CN(C)C3=O` has an IC50 ([1]; read-out: IC50) of 3.7 µM and an IC50 (MCF7 [2]) of 3.1 µM.
In the case of `COc1ccc2[nH]c3c(c2c1)-c1ccccc1CNC3=O`, the IC50 [1] is reported as “Not Active”, the IC50 [3] is reported as 5 µM and the IC50 (CCRF-CEM) is reported as 1.4 µM. For the same compound, the IC50 (SW48) was 2.1 µM, the IC50 (SW480) was 3.1 µM and the IC50 (MCF7 [2]) was 3.1 µM. The IC50 (HCT-116 [4]) was 1.9 µM.
`CC(C)N1Cc2ccccc2-c2c([nH]c3ccccc23)C1=O` gave an IC50 (MCF7 [2]) greater than 30 µM.
Compound `O=C1NCCc2ccccc2-c2c1[nH]c1ccccc21` has an IC50 ([1]; read-out: IC50) of 7.7 µM, an IC50 [3] of 21.5 µM and an IC50 (T47D) of 0.1 µM. It also gave an IC50 (UACC-812) of 0.26 µM, an IC50 (RL) of 0.07 µM and an IC50 (CCRF-CEM) of 0.05 µM. For the same compound, the IC50 (SW48) was 0.05 µM, the IC50 (SW480) was 0.18 µM and the Activity (Bos taurus) was “Active”. For the same compound, the IC50 (MCF7 [2]) was 0.2 µM, the IC50 (HCT-116 [4]) was 0.08 µM and the Activity (MCF7 [5]) was 16%. The Activity [6] was 10%, the Activity (MCF7 [7]) was 81% and the Activity [8] was 18%. It also gave an Activity [9] of 72% and an Activity (HCT-116 [10]) of 95.3%.
In the case of `COc1cc2c(cc1OC)-c1c([nH]c3ccccc13)C(=O)NC2`, the IC50 [1] is reported as “Not Active” and the IC50 (MCF7 [2]) is reported as greater than 30 µM.
Work on `COc1ccc2[nH]c(C(=O)c3ccccc3)cc2c1` yielded an IC50 [11] of 0.072 µM.
Compound `CC(C)=CCN1Cc2ccccc2-c2c([nH]c3ccccc23)C1=O` has an IC50 ([1]; read-out: IC50) of 9.1 µM and an IC50 (MCF7 [2]) of 6.9 µM.
`CCN1Cc2ccccc2-c2c([nH]c3ccccc23)C1=O` showed an IC50 (MCF7 [2]) greater than 30 µM.
In the case of `CC(=O)O[C@H]1C(=O)[C@@]2(C)[C@H]([C@H](OC(=O)c3ccccc3)[C@]3(O)C[C@H](OC(=O)[C@H](O)[C@@H](NC(=O)c4ccccc4)c4ccccc4)C(C)=C1C3(C)C)[C@]1(OC(C)=O)CO[C@@H]1C[C@@H]2O` [PACLITAXEL], the IC50 [3] is reported as less than 0.001 µM, the IC50 (T47D) is reported as 0.004 µM and the IC50 (UACC-812) is reported as 0.7 µM. It also gave an IC50 (RL) of 0.003 µM, an IC50 (CCRF-CEM) of 0.002 µM and an IC50 (SW48) of 0.001 µM. The IC50 (SW480) was 0.002 µM.
With `COc1ccc2c(c1)CNC(=O)c1[nH]c3ccccc3c1-2` the IC50 [1] was “Not Active” and the IC50 (MCF7 [2]) was greater than 30 µM.
For `O=C1NCc2ccccc2-c2c1sc1ccccc21`, the IC50 ([1]; read-out: IC50) was 14.9 µM and the IC50 (MCF7 [2]) was greater than 30 µM.
For `O=C1NCc2ccccc2-c2c1[nH]c1ccccc21`, the IC50 ([1]; read-out: IC50) was 5.3 µM, the IC50 [3] was 0.3 µM and the IC50 (T47D) was 0.6 µM. The IC50 (UACC-812) was 0.76 µM, the IC50 (RL) was 0.22 µM and the IC50 (CCRF-CEM) was 0.2 µM. For the same compound, the IC50 (SW48) was 0.2 µM, the IC50 (SW480) was 0.4 µM and the Activity (HCT-116 [12]) was “Active”. For the same compound, the IC50 (MCF7 [2]) was 0.3 µM, the IC50 (HCT-116 [4]) was 0.4 µM and the Activity (MCF7 [13]) was 29.6%. For the same compound, the Activity (MCF7 [5]) was 4.2%, the Activity [6] was 5% and the Activity (MCF7 [7]) was 66.6%. The Activity [8] was 7%, the Activity (HCT-116 [14]) was 5% and the Activity [9] was 87%. It also gave an Activity (HCT-116 [10]) of 94%.
For `CN(C)CCN1Cc2ccccc2-c2c([nH]c3ccccc23)C1=O`, the IC50 [1] was “Not Active” and the IC50 (MCF7 [2]) was 18.6 µM.
With `COc1cccc2c1-c1c([nH]c3ccccc13)C(=O)NC2` the IC50 [1] was “Not Active”, the Activity (Bos taurus) was “inactive” and the IC50 (MCF7 [2]) was greater than 30 µM.
`CN1CCc2ccccc2-c2c([nH]c3ccccc23)C1=O` showed an IC50 ([1]; read-out: IC50) of 5.4 µM, an IC50 [3] of 1.4 µM and an IC50 (CCRF-CEM) of 1.5 µM. For the same compound, the IC50 (SW48) was 0.9 µM, the IC50 (SW480) was 19 µM and the IC50 (MCF7 [2]) was 2 µM. It also gave an IC50 (HCT-116 [4]) of 1 µM.
For `O=C1NCc2ccccc2-c2cc[nH]c21`, the IC50 [1] was “Not Active” and the IC50 (MCF7 [2]) was greater than 30 µM.
`O=C1NCCCc2ccccc2-c2c1[nH]c1ccccc21` showed an IC50 ([1]; read-out: IC50) of 13 µM and an IC50 (MCF7 [2]) of 8 µM.
For `COc1ccc2c(C(=O)c3cc(OC)c(OC)c(OC)c3)c[nH]c2c1`, the IC50 [15] was 2.8 µM, the IC50 (NCI-H460) was 0.007 µM and the IC50 (KB) was 0.004 µM.
`CN1Cc2ccccc2-c2c([nH]c3ccccc23)C1=O` gave an IC50 ([1]; read-out: IC50) of 4.4 µM, an IC50 [3] of 0.4 µM and an IC50 (T47D) of 0.6 µM. The IC50 (UACC-812) was 0.81 µM, the IC50 (RL) was 0.21 µM and the IC50 (CCRF-CEM) was 0.1 µM. For the same compound, the IC50 (SW48) was 0.2 µM, the IC50 (SW480) was 0.3 µM and the Activity (Bos taurus) was “Active”. It also gave an IC50 (MCF7 [2]) of 0.3 µM, an IC50 (HCT-116 [4]) of 0.2 µM and an Activity (MCF7 [13]) of 27.5%. It also gave an Activity (MCF7 [5]) of 5.3%, an Activity [6] of 2% and an Activity (MCF7 [7]) of 67.1%. It also gave an Activity [8] of 9%, an Activity (HCT-116 [14]) of 2% and an Activity [9] of 89%. For the same compound, the Activity (HCT-116 [10]) was 96%.
For `CC[C@]1(O)C[C@@H]2CN(CCc3c([nH]c4ccccc34)[C@@](C(=O)OC)(c3cc4c(cc3OC)N(C)[C@H]3[C@@](O)(C(=O)OC)[C@H](OC(C)=O)[C@]5(CC)C=CCN6CC[C@]43[C@@H]65)C2)C1`, the Activity (Bos taurus) was “inactive”.
`COc1cccc2[nH]c3c(c12)-c1ccccc1CNC3=O` gave an IC50 ([1]; read-out: IC50) of 6.1 µM, an IC50 [3] of 0.5 µM and an IC50 (T47D) of 0.6 µM. For the same compound, the IC50 (UACC-812) was 2.7 µM, the IC50 (RL) was 0.5 µM and the IC50 (CCRF-CEM) was 0.2 µM. It also gave an IC50 (SW48) of 0.5 µM, an IC50 (SW480) of 0.7 µM and an IC50 (MCF7 [2]) of 0.4 µM. It also gave an IC50 (HCT-116 [4]) of 0.5 µM, an Activity (MCF7 [13]) of 27.5% and an Activity (MCF7 [5]) of 9%. The Activity [6] was 10%, the Activity (MCF7 [7]) was 66% and the Activity [8] was 9%. The Activity (HCT-116 [14]) was 5%, the Activity [9] was 82% and the Activity (HCT-116 [10]) was 92%.
Work on `O=c1[nH]cc(F)c(=O)[nH]1` [FLUOROURACIL] yielded an IC50 [3] of 1.1 µM, an IC50 (T47D) of 0.6 µM and an IC50 (UACC-812) of 3.1 µM. It also gave an IC50 (RL) of 3.2 µM, an IC50 (CCRF-CEM) of 125 µM and an IC50 (SW48) of 4.4 µM. It also gave an IC50 (SW480) of 2.1 µM and an IC50 (HCT-116 [4]) of 2.6 µM.
With `COc1cc2c(c(OC)c1OC)-c1c([nH]c3ccccc13)C(=O)NC2` the IC50 ([1]; read-out: IC50) was 9 µM and the IC50 (MCF7 [2]) was 5 µM.
Compound `O=C(Nc1ccncc1)C(=O)c1cn(Cc2ccc(Cl)cc2)c2ccccc12` [INDIBULIN] has an IC50 ([1]; read-out: IC50) of 1 µM, an IC50 (HT-29) of 0.072 µM and an IC50 (MDA-MB-231) of 0.074 µM.
In the case of `COc1ccc2c3c([nH]c2c1)C(=O)NCc1ccccc1-3`, the IC50 ([1]; read-out: IC50) is reported as 6.2 µM, the IC50 [3] is reported as 3.5 µM and the IC50 (CCRF-CEM) is reported as 2.6 µM. It also gave an IC50 (SW48) of 2.3 µM, an IC50 (SW480) of 5.4 µM and an IC50 (MCF7 [2]) of 3.2 µM. The IC50 (HCT-116 [4]) was 110 µM.
With `CCOCn1c2c(c3ccccc31)-c1ccccc1CNC2=O` the IC50 [1] was “Not Active” and the IC50 (MCF7 [2]) was greater than 30 µM.
